Source: patent US6121269A, “Reduction of hair growth” (priority 1999, dated 2000)
Read-outs that look alike come from different tables or passages of the source.

What was measured:
protein-tyrosine kinase = test: Protein-Tyrosine Kinase Assay (human skin/hair follicle extract, Calbiochem kit); format: biochemical; details: inhibitor 1 mM, human skin supernatant fraction
Experimental: Protein-tyrosine kinase activity was measured in human skin samples rich in hair follicles using a commercially available assay kit (Calbiochem). Human skin obtained from a local plastic surgeon as a by-product of face-lift procedures was homogenized in four volumes of the extraction buffer containing 20 mM Tris-HCL, pH7.4, 50 mM NaCl, 1 mM EDTA, 1 mM EGTA, 5 mM mercaptoethanol. The samples were centrifuged for 10 min at 16,000×g to remove the membrane/organelle fractions. The supernatant fraction was used for the tyrosine kinase assay. Adding 25 ml of the 20× concentrated solution to 475 ml of deionized water and mixing made a working solution of plate wash buffer. The kinase buffer was prepared by adding 50 ul/ml of the 2 mM ATP stock solution to 1× sample buffer without 2-mercatoethanol. (90 ul of the kinase buffer/well).For the enzyme assay, 10 ul of each sample was added to a well. 10 ul of Abl standard, as positive controls, were added to a well. The kinase reaction was started by adding 90 ul of 1× kinase buffer/well and incubated at room temp for 30 minutes. The contents of each well was washed six times with 1× wash buffer, 100 ul of PY20 antibody diluted 1:200 with 1× Sample/kinase reaction buffer (without ATP) (15 ul to 3 ml) were added and the combination incubated for 30 minutes. The test solutions were washed with wash buffer, and 100 ul of substrate solution were added to each and incubated in the dark for 6 minutes. 100 ul of stop solution were added, and the UV absorbance read at 450 nm. The increase in UV absorbance at 450 nm provided a measure of the enzyme activity.
The ability of protein-tyrosine kinase inhibitors to inhibit the skin/hair follicle enzyme activity was determined by measuring protein-tyrosine kinase activity in the presence and absence of the inhibitor. For enzyme inhibition studies, the inhibitor was added to the reaction mixture at a concentration of 1 mM following addition of the enzyme sample.

human hair follicles = test: Human Hair Follicle Growth Assay; format: cell-based
Experimental: Human hair follicles in growth phase (anagen) were isolated from face-lift tissue under a dissecting scope using a scalpel and watchmakers forceps. The skin was sliced into thin strips exposing 2-3 rows of follicles that could readily be dissected. […] Hair follicles were videorecorded in the 24-well plates under the dissecting scope under a power of 20×. Hair follicle lengths were assessed using an image analysis software system (Computer Eyes and NIH Image). Typically, initial recordings were made on day 0 (day follicles were placed in culture), and on days 1, 4, and 7.
The effect of five protein-tyrosine kinase inhibitors on human hair follicle growth was determined by exposing the isolated follicles to the enzyme inhibitors. The hair follicle lengths were determined before and after the inhibitor treatment.
In another experiment isolated hair follicles were exposed to either 1 mM or 0.01 mM concentration of the protein-tyrosine kinase inhibitor erbstatin, and the hair growth rate was compared to control. Measurements were made at days 0, 1 and 4.

[1] = isolated human follicles, inhibitor 50 μM
[2] = isolated human follicles, inhibitor 500 μM
[3] = isolated human follicles, inhibitor 500 μM, vs control
[4] = isolated human follicles, inhibitor 250 μM

Molecule: CC(=O)OCOC(c1ccc2ccccc2c1)P(=O)(OCOC(C)=O)OCOC(C)=O (stereo not drawn) [HNMPA(AM)3, hydroxy-2-naphthalenylmethylphosphonic acid tris acetoxymethyl ester]
- % Inhibition (protein-tyrosine kinase activity) (protein-tyrosine kinase): 66%

Molecule: O=C(O)c1cc(N(Cc2ccccc2O)Cc2cc(O)ccc2O)ccc1O [Lavendustin A, lavendustin A]
- Hair Growth (human hair follicles; [1]): 0 mm
- Post-treatment hair follicle length (human hair follicles; [1]): 3.5 ± .12 mm
- inhibition at 50 µM (human hair follicles; isolated human follicles, inhibitor 50 μM, vs control): 100%
- % Inhibition (protein-tyrosine kinase activity) (protein-tyrosine kinase): 59%

Molecule: COC(=O)/C=C/c1ccc(O)c(O)c1 [methyl caffeate]
- Hair Growth (human hair follicles; [2]): 0.6 mm
- Post-treatment hair follicle length (human hair follicles; [2]): 4.1 ± .17 mm
- inhibition at 500 µM (human hair follicles; [3]): 40%
- % Inhibition (protein-tyrosine kinase activity) (protein-tyrosine kinase): 100%

Molecule: COc1cc2ncnc(Nc3cccc(Cl)c3)c2cc1OC [Tryphostin AG 1478, 4-(3-Chloroanilino)-6,7-dimethoxyquinazoline]
- inhibition at 250 µM (human hair follicles; Homo sapiens, read-out: % Inhibition (hair growth)): 40%
- Hair Growth (human hair follicles; [4]): 0.6 mm
- Post-treatment hair follicle length (human hair follicles; [4]): 3.8 ± .19 mm

Molecule: N#CC(=Cc1ccc(O)c(O)c1)C(N)=S [Tryphostin A47, α-cyano-(3,4-dihydroxy)thiocinnamide]
- % Inhibition (protein-tyrosine kinase activity) (protein-tyrosine kinase): 16%

Molecule: N#CC(=Cc1ccc(O)cc1)C(N)=C(C#N)C#N [Tryphostin A48, 2-amino-4-(4'-hydroxyphenyl)-1,1,3-tricyanobuta-1,3-diene]
- Hair Growth (human hair follicles; [2]): 0.1 mm
- Post-treatment hair follicle length (human hair follicles; [2]): 3.3 ± .16 mm
- inhibition at 500 µM (human hair follicles; [3]): 91%

Molecule: O=CN/C=C/c1cc(O)ccc1O [Erbstatin, erbstatin]
- Posttreatment (Day-1) Growth (human hair follicles; 0.01 mM): 0.1 mm
- Posttreatment (Day-1) Length (human hair follicles; 0.01 mM): 3.1 ± .20 mm
- Posttreatment (Day-4) Growth (human hair follicles; 0.01 mM): 0.8 mm
- Posttreatment (Day-4) Length (human hair follicles; 0.01 mM): 3.8 ± .29 mm
- Posttreatment (Day-1) Growth (human hair follicles; 1 mM): 0.0 mm
- Posttreatment (Day-1) Length (human hair follicles; 1 mM): 3.0 ± .17 mm
- Posttreatment (Day-4) Growth (human hair follicles; 1 mM): 0.3 mm
- Posttreatment (Day-4) Length (human hair follicles; 1 mM): 3.3 ± .15 mm
- inhibition at 10 µM (human hair follicles; Homo sapiens, 24 h, 0.01 mM, day 1, vs control, read-out: Posttreatment (Day-1) Inhibition): 83%
- inhibition at 1000 µM (human hair follicles; Homo sapiens, 24 h, 1 mM, day 1, vs control, read-out: Posttreatment (Day-1) Inhibition): 100%
- inhibition at 10 µM (human hair follicles; Homo sapiens, 96 h, 0.01 mM, day 4, vs control, read-out: Posttreatment (Day-4) Inhibition): 11%
- inhibition at 1000 µM (human hair follicles; Homo sapiens, 96 h, 1 mM, day 4, vs control, read-out: Posttreatment (Day-4) Inhibition): 67%
- Hair Growth (human hair follicles; [2]): 0.3 mm
- Post-treatment hair follicle length (human hair follicles; [2]): 3.9 ± .10 mm
- inhibition at 500 µM (human hair follicles; [3]): 73%

Molecule: N-acetyl-Asp-Tyr-(2-malonyl)-Val-Pro-Met-Leu-NH2
- % Inhibition (protein-tyrosine kinase activity) (protein-tyrosine kinase): 83%

Molecule: CO[C@H]1[C@@H](OC)C[C@H](C)[C@@H](OC)C2=CC(=O)C=C(NC(=O)/C(C)=C/C=C\[C@H](OC)[C@@H](OC(N)=O)/C(C)=C/[C@@H]1C)C2=O [Herbimycin, herbimycin A]
- % Inhibition (protein-tyrosine kinase activity) (protein-tyrosine kinase): 37%
